The conditions of data set [1]: guinea pig, in vivo.
For data set [2] the following is noted: dog, in vivo.
For data set [3] the following is noted: rat, in vivo.
For data set [4] the following is noted: oral administration; cited from earlier work.
The subject of another data set is substance P. As to conditions: rat, in vivo.
Data set [5] deals with calcitonin gene-related peptide (CGRP). The following applies: rat, in vivo.
Experimental: (§1) Lumbar intrathecal injections--rats: Rats (250-350 gm) were prepared with chronic intrathecal catheters placed in the lumbar intrathecal space. They received intrathecal administration of 15 μl of 25% CDEX. […] At 7 days, the levels of neuropeptides substance P and calcitonin gene-related peptide (CGRP) were measured after extraction of tissue, using radioimmunoassays.

Experimental for substance P: as §1

Regarding 2-hydroxypropyl-β-cyclodextrin [CDEX], in data set [1], the “acute behavioral signs of agitation (irritation)” value was “no acute behavioral signs of agitation”; the “motor function (placing, stepping and righting reflexes or ambulatory tests)” value was “no changes”; the urine staining entry is recorded as “No evidence of urine staining”. Moreover, in data set [2], the bladder function result was “no effect”, the heart rate result is on record as “no effect”, the skin twitch response result is listed as “no effect” and the toxicity result is “lack of toxicity”. For the same compound, in data set [3], the EEG activity entry is “no effect” and the general motor behavior result was “no effect”.

For the compound `CS(=O)(=O)OCCCCOS(C)(=O)=O` [Busulfan, busulfan], in data set [4], the bone marrow depression result is recorded as “severe bone marrow depression”.

For the compound `C[S+](C)[O-]` [dimethyl sulfoxide], the “tissue level of substance P” value with substance P is “significant reduction”. For the same compound, the “tissue level of CGRP” value in data set [5] is given as “significant reduction”.
